We go through twelve molecules from ChEMBL document CHEMBL1201862, “PubChem BioAssay data set” (2004).

Test systems include SW-620; HL-60; UO-31; SK-MEL-28; SF-268; OVCAR-5; SF-539; A549; SK-OV-3; SNB-19; IGROV-1; SK-MEL-2; HT-29; U-251; NCI-H460; UACC-257; SF-295; ACHN; M14; SR.
Holding throughout (test): NCI anticancer screen, dose series, 48 h

Each structure is given as a SMILES string.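 Each compound was tested at five concentrations against cells in 96-well plates for 48 hours. Abbreviation: GI50, concentration required for 50% inhibition of growth.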 Activity calls are given as the source filed them. Cut-off read from the data, not from the text of the source: active = GI50 up to about 1.1 µM and inactive = higher. Some results are limits rather than exact numbers.

Take `C=C1C(O)C2(O)OCC34C(CC5C(C)=CC(=O)C(O)C5(C)C23)OC(=O)C(OC(=O)C/C=C/CCCCCCCC)C14` (configuration not stated): the GI50 in the assay with SW-620 was 0.0217 µM (active); in the assay with HL-60, 0.02 µM (active); with UO-31, 0.0452 µM (active); in the assay on SK-MEL-28, 0.02 µM (active); in the assay with SF-268, 0.0209 µM (active); in the assay on OVCAR-5, 0.112 µM (active). Moreover, the GI50 in the assay with SF-539 is 0.0208 µM (active); with A549, 0.0249 µM (active); in the assay on SK-OV-3, 0.056 µM (active); in the assay with SNB-19, 0.0212 µM (active); with IGROV-1, 0.02 µM (active); with SK-MEL-2 it was 0.0241 µM (active). The GI50 in the assay on HT-29 was 0.0226 µM (active); in the assay on U-251, 0.02 µM (active).
As to `CSc1nc(NC2OCC(O)C(O)C2O)c(N)c(=O)n1C` (configuration not stated), the GI50 was > 100 µM (inactive) in the assay with SW-620; > 100 µM (inactive) in the assay on HL-60; > 85.5 µM (inactive) with UO-31; > 100 µM (inactive) with SK-MEL-28; > 100 µM (inactive) in the assay with SF-268; > 100 µM (inactive) in the assay with NCI-H460. For the same molecule, the GI50 in the assay with OVCAR-5 is > 100 µM (inactive); in the assay on UACC-257, > 100 µM (inactive); with SF-539 it was 75.2 µM (inactive); in the assay with A549 it was > 100 µM (inactive); with SK-OV-3 it was > 100 µM (inactive); in the assay with SNB-19 it was > 100 µM (inactive). In addition, the GI50 with IGROV-1, in the assay with SK-MEL-2, in the assay on HT-29, with SF-295 and in the assay on U-251 was > 100 µM (inactive) throughout.
Consider `CC(C)(C)c1ccc2c(c1)OP1(Oc3cccc4cccnc34)(O2)Oc2ccc(C(C)(C)C)cc2O1`, for which the GI50 in the assay on SW-620 was 2.25 µM (inactive); in the assay with HL-60 it was 1.76 µM (inactive); in the assay with UO-31, 4.42 µM (inactive); in the assay on SK-MEL-28, 15.7 µM (inactive); in the assay with SF-268 it was 6.56 µM (inactive); in the assay with NCI-H460, 3.04 µM (inactive). Besides, the GI50 is 4.17 µM (inactive) with OVCAR-5; 2.54 µM (inactive) in the assay on UACC-257; 10.4 µM (inactive) with SF-539; 5.58 µM (inactive) in the assay with A549; 48.2 µM (inactive) with SK-OV-3; 14.2 µM (inactive) in the assay with SNB-19. Also, the GI50 is 3.88 µM (inactive) in the assay with IGROV-1; 7.85 µM (inactive) in the assay on SK-MEL-2; 3.89 µM (inactive) in the assay with HT-29; 4.19 µM (inactive) in the assay on SF-295; 7 µM (inactive) in the assay on U-251.
Consider `Nc1nc(SCCc2ccccc2)nc2nc3c(c(-c4ccccc4)c12)CCCC3`, for which the GI50 in the assay on SW-620, in the assay with HL-60, in the assay on UO-31, in the assay on SK-MEL-28, in the assay on SF-268 and in the assay with NCI-H460 was > 100 µM (inactive) throughout. Also, the GI50 in the assay with ACHN was > 100 µM (inactive); in the assay with M14, > 100 µM (inactive); with UACC-257, > 100 µM (inactive); in the assay with SF-539, 0.706 µM (active); in the assay on A549 it was > 100 µM (inactive); in the assay on SK-OV-3 it was 99.1 µM (inactive). The GI50 in the assay on SNB-19, in the assay on IGROV-1, in the assay on HT-29, with SF-295 and in the assay with U-251 was > 100 µM (inactive) in each case.
With `Cc1cc([N+](=O)[O-])ccc1/N=N/C(=O)NNc1ccc([N+](=O)[O-])cc1C`, the GI50 with SW-620 was 16.7 µM (inactive); in the assay on HL-60 it was 20 µM (inactive); in the assay on UO-31, 11.8 µM (inactive); in the assay on SK-MEL-28, 16.4 µM (inactive); with SF-268 it was 20 µM (inactive); in the assay on SR, 20.7 µM (inactive). Moreover, the GI50 in the assay on NCI-H460 is 17.6 µM (inactive); with ACHN, 15.8 µM (inactive); with M14 it was 13.6 µM (inactive); in the assay with OVCAR-5, 17.1 µM (inactive); in the assay with UACC-257, 20 µM (inactive); with A549, 15.8 µM (inactive). Moreover, the GI50 is 15.6 µM (inactive) in the assay with SNB-19; 19.6 µM (inactive) in the assay on IGROV-1; 21 µM (inactive) with SK-MEL-2; 27 µM (inactive) in the assay with HT-29; 17.5 µM (inactive) with U-251.
Turning to `CCOC(=O)CC1(c2cccc3ccccc23)OC(=O)c2ccccc21` (configuration not stated), the GI50 in the assay with SW-620 was 79.4 µM (inactive); in the assay with HL-60, 22.1 µM (inactive); with UO-31 it was 23.9 µM (inactive); with SK-MEL-28, 39.9 µM (inactive); in the assay with SF-268, 32.7 µM (inactive); in the assay on NCI-H460 it was 37.6 µM (inactive). Also, the GI50 was 30.3 µM (inactive) in the assay on ACHN; > 100 µM (inactive) with OVCAR-5; 56.4 µM (inactive) with UACC-257; 41 µM (inactive) with A549; > 100 µM (inactive) with SK-OV-3; 50.9 µM (inactive) in the assay with SNB-19. Moreover, the GI50 in the assay on IGROV-1 is > 100 µM (inactive); in the assay on SK-MEL-2, 32.1 µM (inactive); with HT-29, 49.8 µM (inactive); in the assay on SF-295 it was 34.4 µM (inactive); in the assay with U-251 it was 68.4 µM (inactive).
For `COC(C[C@H]1CCCC[C@]1(O)/C(=C\CO[Si](C(C)C)(C(C)C)C(C)C)Sc1ccccc1)OC`, the GI50 with HL-60 is 38.2 µM (inactive); with UO-31, 42.2 µM (inactive); in the assay on SK-MEL-28, 50.6 µM (inactive); in the assay on SF-268, 28.3 µM (inactive); with SR it was 20.7 µM (inactive); with NCI-H460 it was 60 µM (inactive). The GI50 in the assay on ACHN is > 100 µM (inactive); in the assay on M14, 31.6 µM (inactive); in the assay with OVCAR-5 it was 38.4 µM (inactive); in the assay with UACC-257, 42.4 µM (inactive); in the assay with A549, 28.6 µM (inactive); with SK-OV-3 it was > 100 µM (inactive). In addition, the GI50 in the assay with SNB-19 was 26.7 µM (inactive); in the assay with IGROV-1, 52.7 µM (inactive); in the assay with SK-MEL-2 it was 22.7 µM (inactive); with HT-29 it was 46.1 µM (inactive); in the assay on SF-295, 32.4 µM (inactive); in the assay on U-251 it was 22.1 µM (inactive).
Turning to `O=C(NC(Cc1ccc(I)cc1)C(=O)O)c1cccc(Br)c1` (configuration not stated), the GI50 was > 100 µM (inactive) in the assay with SW-620; > 100 µM (inactive) in the assay on HL-60; > 100 µM (inactive) with UO-31; 49.8 µM (inactive) with SK-MEL-28; > 100 µM (inactive) in the assay on SF-268; 96.8 µM (inactive) in the assay with NCI-H460. For the same molecule, the GI50 in the assay on OVCAR-5 was > 100 µM (inactive); in the assay with UACC-257 it was > 100 µM (inactive); with SF-539 it was 84.1 µM (inactive); with A549 it was > 100 µM (inactive); in the assay with SK-OV-3, > 100 µM (inactive); with SNB-19, 99.1 µM (inactive). Moreover, the GI50 in the assay on IGROV-1 was > 100 µM (inactive); in the assay with SK-MEL-2, > 80.7 µM (inactive); in the assay with HT-29, > 100 µM (inactive); in the assay with SF-295, > 100 µM (inactive); in the assay on U-251, 78.3 µM (inactive).
With `O=P(Nc1ccc(Cl)cc1)(Oc1ccccc1)N(CCCl)CCCl` (configuration not stated), the GI50 in the assay on SW-620, in the assay with UO-31, in the assay with SK-MEL-28, in the assay with SF-268, in the assay on SR and in the assay with ACHN was > 100 µM (inactive) in each case. The GI50 in the assay on M14, in the assay with OVCAR-5, in the assay with UACC-257, in the assay with SF-539, with A549 and with SK-OV-3 was > 100 µM (inactive) in each case. Moreover, the GI50 was > 100 µM (inactive) in the assay on IGROV-1; 35.5 µM (inactive) with SK-MEL-2; > 100 µM (inactive) in the assay on HT-29; > 100 µM (inactive) with SF-295; > 100 µM (inactive) in the assay with U-251.
With `COn1oc(=O)c2ccccc21`, the GI50 in the assay with SW-620, with HL-60, in the assay on UO-31, in the assay on SK-MEL-28, in the assay with SF-268 and in the assay with NCI-H460 was > 100 µM (inactive) throughout. Also, the GI50 in the assay with ACHN, in the assay on M14, with OVCAR-5, in the assay with UACC-257, in the assay with SF-539 and in the assay on A549 was > 100 µM (inactive) throughout. The GI50 in the assay on SK-OV-3, with SNB-19, with IGROV-1, with SK-MEL-2, in the assay on HT-29 and with SF-295 was > 100 µM (inactive) in each case. Further, in the assay on U-251, the GI50 is > 100 µM (inactive).
Regarding `O=C1C[C@H](c2ccccc2)C2(C(=O)c3ccccc3C2=O)[C@H](c2ccccc2)C1`, the GI50 in the assay on HL-60, in the assay on UO-31, in the assay with SK-MEL-28, with SR, in the assay on NCI-H460 and in the assay on M14 was > 100 µM (inactive) each time. Further, the GI50 in the assay with OVCAR-5 is > 100 µM (inactive); in the assay with SK-OV-3, 19.5 µM (inactive); in the assay with SNB-19 it was > 100 µM (inactive); with IGROV-1 it was 9.08 µM (inactive); in the assay on SK-MEL-2, 16.6 µM (inactive); with HT-29 it was > 100 µM (inactive). Moreover, the GI50 in the assay on SF-295 and in the assay on U-251 was > 100 µM (inactive) in each case.
Consider `C/C(=C\c1ccccc1)n1c(=O)cc(C)n1C`, for which the GI50 in the assay on SW-620, in the assay with UO-31, with SK-MEL-28, in the assay on SF-268, with NCI-H460 and in the assay on ACHN was > 100 µM (inactive) throughout. For the same molecule, the GI50 in the assay on M14, with OVCAR-5, with UACC-257, with SF-539, in the assay with A549 and with SK-OV-3 was > 100 µM (inactive) each time. Further, the GI50 with SNB-19, in the assay on IGROV-1, in the assay on SK-MEL-2, in the assay on HT-29, with SF-295 and with U-251 was > 100 µM (inactive) each time.
